Test results as given in US4169096A, “Antibiotic compounds” (priority 1977, dated 1979).
Values after ≈ are worked out from the molar mass of the structure shown. Structures can show the parent of a compound that is named as a salt. Where two headings read alike, the source gives them in different places.

Tests used:
B. fragilis A20926 = assay: Localized infection with B. fragilis in mice; format: in vivo; details: for mean score: control 4.2; for sum of score: control 21; for infectivity level: control 100%
[1] = test system: Escherichia coli Juhl A15119; assay: MIC, serial two-fold agar dilution, aerobic bacteria; format: cell-based; details: JUHLA15119, Nutrient agar (Eiken), read-out: MIC
[2] = test system: Klebsiella pneumoniae A9678; assay: as above; format: cell-based; details: Nutrient agar (Eiken), read-out: MIC
[3] = test system: Serratia marcescens A20019; assay: as above; format: cell-based; details: Nutrient agar (Eiken), read-out: MIC
[4] = test system: Pseudomonas aeruginosa A9843; assay: as above; format: cell-based; details: test medium not given
Proteus mirabilis A9554 = assay: as above; format: cell-based; details: Nutrient agar (Eiken)
Proteus morganii A9553 = assay: as above; format: cell-based; details: Morganella morganii, Nutrient agar (Eiken)
[5] = test system: Staphylococcus aureus 209P; assay: as above; format: cell-based; details: Nutrient agar (Eiken)
[6] = test system: Staphylococcus aereus Smith; assay: as above; format: cell-based
[7] = test system: Staphylococcus aureus #52-34; assay: as above; format: cell-based
Sarcina lutea PCI-1001 = assay: as above; format: cell-based; details: Micrococcus luteus, PCI1001
Micrococcus flavus = assay: as above; format: cell-based; details: Nutrient agar (Eiken), read-out: MIC
[8] = test system: Bacillus cereus ATCC 10702 A; assay: as above; format: cell-based; details: ATCC10702, Nutrient agar (Eiken), read-out: MIC
[9] = test system: Bacillus subtilis PCI-219; assay: as above; format: cell-based; details: PCI219, Nutrient agar (Eiken), read-out: MIC
[10] = test system: Streptococcus pyogenes A9604; assay: as above; format: cell-based; details: GC medium (Eiken)
[11] = test system: Streptococcus pyogenes A20201; assay: as above; format: cell-based; details: GC medium (Eiken)
[12] = test system: Streptococcus viridans A21354; assay: as above; format: cell-based; details: GC medium (Eiken)
[13] = test system: Diplococcus pneumoniae A9585; assay: as above; format: cell-based; details: Streptococcus pneumoniae, GC medium (Eiken)
[14] = test system: Neisseria meningitidis A20049; assay: as above; format: cell-based; details: GC medium (Eiken), read-out: MIC
[15] = test system: Neisseria meningitidis A21496; assay: as above; format: cell-based; details: GC medium (Eiken)
[16] = test system: Neisseria gonorrhoeae A15112; assay: as above; format: cell-based; details: GC medium (Eiken)
[17] = test system: Neisseria gonorrhoeae A20154; assay: as above; format: cell-based; details: GC medium (Eiken)
[18] = test system: Hemophilus influenzae A9832; assay: as above; format: cell-based; details: Haemophilus influenzae, GC medium (Eiken)
[19] = test system: Hemophilus influenzae A20188; assay: as above; format: cell-based; details: Haemophilus influenzae, GC medium (Eiken)
[20] = test system: Peptostreptococcus anaerobius B43; format: cell-based; details: GAM agar medium (Nissui)
B. fragilis A20928-1 [21] = assay: Inoculum size effect on MIC, GAM agar; format: cell-based; details: Bacteroides fragilis, A209281; inoculum size 1.2 × 10^6 cell/ml
B. fragilis A20928-1 [22] = assay: Inoculum size effect on MIC, GAM broth; format: cell-based; details: Bacteroides fragilis
C. perfringens A9635 [23] = assay: microbe, parasite or virus in culture; format: cell-based; details: Clostridium perfringens, A9635, read-out: MIC in GAM broth, inoculum size […] 10^6 cell/ml
B. fragilis A20928-1 [24] = assay: Bactericidal activity (MIC & MBC); format: cell-based; details: Bacteroides fragilis, A209281, inoculum size 2.8 × 10^6 cell/ml
C. perfringens A9635 [25] = assay: microbe, parasite or virus in culture; format: cell-based; details: Clostridium perfringens, A9635, 18 h
S. pyogenes A20201 [26] = assay: Bactericidal activity (MIC & MBC); format: cell-based; details: Streptococcus pyogenes, A20201, 18 h
C. perfringens A9635 [27] = assay: animal or person; format: in vivo, mice; details: Clostridium perfringens, A9635, in Mus musculus, 120 h, read-out: PD50
S. pyogenes A20201 [28] = assay: Systemic infection with S. pyogenes in mice; format: in vivo; details: Streptococcus pyogenes, A20201, 120 h, just before challenge, determined after 5 days, read-out: PD50
Solubility = format: physicochemical
Stability in solution = format: physicochemical
[29] = pKa' by titration in aqueous ethanol; format: physicochemical; details: 46% aqueous ethanol
aerobic organisms = assay: Antibacterial activity against aerobic bacteria (in words); format: cell-based; details: Bacillus species, streptococci, Neisseria meningtidis, N. gonorrhoeae, Hemophilus influenzae
[30] = test system: aerobic and anaerobic bacteria; assay: Antibacterial activity and spectrum (in words); format: cell-based
[31] = test system: two anaerobic organisms (B. fragilis and C. perfringens); format: cell-based; details: broth dilution method
[32] = test system: two anaerobic and one aerobic organisms; assay: Bactericidal potential (in words); format: cell-based
[33] = test system: C. perfringens or S. pyrogenes; format: in vivo, mice; details: subcutaneous and oral
[34] = test system: Escherichia coli K-12 A9632; assay: MIC, serial two-fold agar dilution, aerobic bacteria; details: K12A9632

Q: With `COC(=O)C1C(C)OC2(C)CC(=O)C3OC12OC(C(C)/C=C(C)/C=C/C(=O)C1=C(O)CNC1=O)C3C` (stereo not shown) [Bu-2313B (Na salt)] as the compound, how does the mean score (B. fragilis A20926; oral, 6.3 × 5 mg/kg) read?
A: 3.4

Q: What about the sum of score (B. fragilis A20926; oral, 6.3 × 5 mg/kg) of the same compound?
A: 17

Q: What about the infectivity level (B. fragilis A20926; oral, 6.3 × 5 mg/kg) of the same compound?
A: 81.0%

Q: What about the mean score (B. fragilis A20926; oral, 25 × 5 mg/kg) of the same compound?
A: 3.0

Q: And the sum of score (B. fragilis A20926; oral, 25 × 5 mg/kg)?
A: 15

Q: And the infectivity level (B. fragilis A20926; oral, 25 × 5 mg/kg)?
A: 71.4%

Q: What about the mean score (B. fragilis A20926; oral, 100 × 5 mg/kg) of the same compound?
A: 2.4

Q: What about the sum of score (B. fragilis A20926; oral, 100 × 5 mg/kg) of the same compound?
A: 12

Q: And the infectivity level (B. fragilis A20926; oral, 100 × 5 mg/kg)?
A: 57.1%

Q: And the mean score (B. fragilis A20926; oral, […] 5 mg/kg)?
A: 4.0

Q: And the sum of score (B. fragilis A20926; oral, […] 5 mg/kg)?
A: 20

Q: And the infectivity level (B. fragilis A20926; oral, […] 5 mg/kg)?
A: 95.2%

Q: And the mean score (B. fragilis A20926; subcutaneous, 0.8 × 5 mg/kg)?
A: 4.0

Q: What about the sum of score (B. fragilis A20926; subcutaneous, 0.8 × 5 mg/kg) of the same compound?
A: 20

Q: And the infectivity level (B. fragilis A20926; subcutaneous, 0.8 × 5 mg/kg)?
A: 95.2%

Q: And the mean score (B. fragilis A20926; subcutaneous, 3.1 × 5 mg/kg)?
A: 3.4

Q: What about the sum of score (B. fragilis A20926; subcutaneous, 3.1 × 5 mg/kg) of the same compound?
A: 17

Q: And the infectivity level (B. fragilis A20926; subcutaneous, 3.1 × 5 mg/kg)?
A: 81.0%

Q: And the mean score (B. fragilis A20926; subcutaneous, 50 × 5 mg/kg)?
A: 2.2

Q: And the sum of score (B. fragilis A20926; subcutaneous, 50 × 5 mg/kg)?
A: 11

Q: What about the infectivity level (B. fragilis A20926; subcutaneous, 50 × 5 mg/kg) of the same compound?
A: 52.4%

Q: What about the mean score (B. fragilis A20926; subcutaneous, […] 5 mg/kg) of the same compound?
A: 2.8

Q: What about the sum of score (B. fragilis A20926; subcutaneous, […] 5 mg/kg) of the same compound?
A: 14

Q: And the infectivity level (B. fragilis A20926; subcutaneous, […] 5 mg/kg)?
A: 66.7%

Q: And the LD50 (in vivo; po, LD50, po)?
A: 280 mg/kg

Q: And the LD50 (Acute toxicity; ip)?
A: 55 mg/kg

Q: What about the LD50 (Acute toxicity; sc) of the same compound?
A: 200 mg/kg

Q: For `COC(=O)C1C(C)OC2(C)CC(=O)C3OC12OC(C(C)/C=C(C)/C=C/C(=O)C1=C(O)CNC1=O)C3C` (stereo not shown) [Bu-2313B], which MIC [1] is on record?
A: > 100 µg/mL

Q: And the MIC [2]?
A: > 100 µg/mL

Q: What about the MIC [3] of the same compound?
A: > 100 µg/mL

Q: And the MIC [4]?
A: > 100 µg/mL

Q: And the MIC (Proteus mirabilis A9554)?
A: > 100 µg/mL

Q: What about the MIC (Proteus morganii A9553) of the same compound?
A: > 100 µg/mL

Q: And the MIC [5]?
A: 25 µg/mL (≈ 49.6 µM)

Q: And the MIC [6]?
A: 12.5 µg/mL (≈ 24.8 µM)

Q: And the MIC [7]?
A: 12.5 µg/mL (≈ 24.8 µM)

Q: What about the MIC (Sarcina lutea PCI-1001) of the same compound?
A: 12.5 µg/mL (≈ 24.8 µM)

Q: And the MIC (Micrococcus flavus)?
A: 25 µg/mL (≈ 49.6 µM)

Q: And the MIC [8]?
A: 0.8 µg/mL (≈ 1.59 µM)

Q: What about the MIC [9] of the same compound?
A: 1.6 µg/mL (≈ 3.18 µM)

Q: What about the MIC [10] of the same compound?
A: 0.4 µg/mL (≈ 0.794 µM)

Q: And the MIC [11]?
A: 0.4 µg/mL (≈ 0.794 µM)

Q: And the MIC [12]?
A: 0.4 µg/mL (≈ 0.794 µM)

Q: What about the MIC [13] of the same compound?
A: 0.4 µg/mL (≈ 0.794 µM)

Q: What about the MIC [14] of the same compound?
A: 0.8 µg/mL (≈ 1.59 µM)

Q: And the MIC [15]?
A: 1.6 µg/mL (≈ 3.18 µM)

Q: What about the MIC [16] of the same compound?
A: 0.8 µg/mL (≈ 1.59 µM)

Q: What about the MIC [17] of the same compound?
A: 0.8 µg/mL (≈ 1.59 µM)

Q: And the MIC [18]?
A: 0.4 µg/mL (≈ 0.794 µM)

Q: And the MIC [19]?
A: 0.8 µg/mL (≈ 1.59 µM)

Q: What about the MIC [20] of the same compound?
A: 0.4 µg/mL (≈ 0.794 µM)

Q: What about the MIC (B. fragilis A20928-1 [21]) of the same compound?
A: 0.05 µg/mL (≈ 0.0993 µM)

Q: What about the MIC (B. fragilis A20928-1 [22]; A209281, inoculum size […] 10^7 cell/ml, read-out: MIC in GAM broth) of the same compound?
A: 0.4 µg/mL (≈ 0.794 µM)

Q: What about the MIC (B. fragilis A20928-1 [22]; A209281, read-out: MIC in GAM broth, inoculum size […] 10^6 cell/ml) of the same compound?
A: 0.013 µg/mL (≈ 0.0258 µM)

Q: And the MIC (C. perfringens A9635 [23])?
A: 25 µg/mL (≈ 49.6 µM)

Q: And the MIC (B. fragilis A20928-1 [24]; broth)?
A: 0.006 µg/mL (≈ 0.0119 µM)

Q: What about the MBC (B. fragilis A20928-1 [24]; growth of less than 100 colonies per plate, 18 hours at 37° C.) of the same compound?
A: > 0.8 µg/mL

Q: What about the MBC (C. perfringens A9635 [25]) of the same compound?
A: 12.5 µg/mL (≈ 24.8 µM)

Q: What about the MBC (S. pyogenes A20201 [26]) of the same compound?
A: 12.5 µg/mL (≈ 24.8 µM)

Q: What about the ED50 (C. perfringens A9635 [27]; po) of the same compound?
A: 30 mg/kg

Q: And the ED50 (C. perfringens A9635 [27]; sc)?
A: 6.25 mg/kg

Q: And the ED50 (S. pyogenes A20201 [28]; po, NA: no activity)?
A: 25 mg/kg

Q: And the ED50 (S. pyogenes A20201 [28]; sc)?
A: 9 mg/kg

Q: And the solubility (Solubility; hexane and alkaline water)?
A: slightly soluble

Q: And the solubility (Solubility; most organic solvents such as lower alcohols, ethyl acetate, chloroform and benzene)?
A: readily soluble

Q: What about the solubility (Solubility; water) of the same compound?
A: practically insoluble

Q: And the stability (Stability in solution; acidic solution)?
A: stable

Q: What about the stability (Stability in solution; alkaline solution, N/10 NaOH, room temperature, overnight) of the same compound?
A: inactivated

Q: What about the pKa [29] of the same compound?
A: 4.9

Q: And the “susceptibility of aerobic strains” value (aerobic organisms)?
A: susceptible

Q: What about the antibacterial activity [30] of the same compound?
A: exhibit antibacterial activity against a variety of anaerobic bacteria and some aerobic bacteria

Q: What about the “comparative activity and antibacterial spectrum” value ([30]; in vitro) of the same compound?
A: very similar to those of tirandamycin

Q: What about the “influence of inoculum size on MIC” value [31] of the same compound?
A: greatly affected by inoculum size

Q: And the antibacterial action [32]?
A: bacteriostatic rather than bactericidal

Q: And the “protection against systemic infections” value [33]?
A: fairly good protection

Q: What about the LD50 (in vivo; sc, LD50, sc) of the same compound?
A: 225 mg/kg

Q: What about the LD50 (Acute toxicity; ip, listed as Bu-2313B (free acid)) of the same compound?
A: 115 mg/kg

Q: And the comparative acute toxicity (Acute toxicity; sc, ip and oral LD50)?
A: significantly lower toxicity than Bu-2313A

Q: What about the MIC [34] of the same compound?
A: > 100 µg/mL
